From US20210330611A1, “THERAPY FOR NEUROLOGICAL DISEASES/DISORDERS” (priority 2020, published 2021)
Counter-ions that a name gives are not always drawn. Like-named read-outs stand apart in the source and are kept apart here.

Columns and labels:
[1] = system: primary rat microglia; assay: Cell toxicity (dead cells, size <150 μm2) in LPS assay
[2] = system: LPS-induced microglia activation; assay: Image-based assay of LPS-induced microglia activation (HTS and dose response); format: cell-based, rat; conditions: for inhibition at 10 µM: Rattus norvegicus, Microglia, read-out: LPS % inhibition
[3] = system: fibrin- and LPS-induced microglia activation; assay: cells; format: cell-based, rat
[4] = system: primary rat microglia; assay: Cell toxicity (dead cells, size <150 μm2) in coated fibrin (cFib) assay;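 further: share of dead cells sized under 150 µm2 at 10 µM in fibrin-stimulated microglia HTS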
[5] = system: fibrin-induced microglia activation; assay: Image-based assay of fibrin-induced microglia activation (HTS and dose response); format: cell-based, rat; conditions: for inhibition at 10 µM: Rattus norvegicus, Microglia, read-out: Fibrin % inhibition
[6] = primary microglia HTS, LPS stimulation, decreased size (<150 μm^2) as marker of toxicity
[7] = quadrant by fibrin and LPS inhibition in HTS of 1907 compounds
[8] = primary microglia HTS, fibrin stimulation, decreased size (<150 μm^2) as marker of toxicity
[9] = primary microglia HTS, fibrin stimulation, increased cell size (>800 μm^2) as marker of activation
[10] = 48 h, primary microglia HTS, LPS stimulation, increased cell size (>800 μm^2) as marker of activation
[11] = primary microglia HTS, 10 μM, LPS assay, cell size <150 μm^2 as marker of toxicity
[12] = primary microglia HTS, 10 μM, LPS-stimulated, cell size >800 μm^2 as marker of activation
[13] = HTS of 1907 compounds, quadrant by fibrin and LPS inhibition
[14] = primary microglia HTS, 10 μM, fibrin assay, cell size <150 μm^2 as marker of toxicity
[15] = primary microglia HTS, 10 μM, fibrin-stimulated, cell size >800 μm^2 as marker of activation
[16] = primary microglia HTS, LPS stimulation, toxicity = cell size <150 μm2
[17] = primary microglia HTS, fibrin stimulation, toxicity = cell size <150 μm2
[18] = primary microglia HTS, fibrin stimulation, activation = cell size >800 μm2

SMILES	LPS % cell toxicity [1, 6]	Quadrant (FIG. 5b) [3, 7]	Fibrin % cell toxicity [4, 8]	inhibition at 10 µM [2, 10]	inhibition at 10 µM [5, 9]	LPS % cell toxicity [1, 11]	inhibition at 10 µM [2, 12]	Quadrant (FIG. 5b) [3, 13]	Fibrin % cell toxicity [4, 14]	inhibition at 10 µM [5, 15]	further results
C=C1c2c(Cl)ccc(O)c2C(=O)C2=C(O)[C@]3(O)C(=O)C(C(N)=O)=C(O)[C@@H](N(C)C)[C@@H]3[C@@H](O)[C@H]12.O=C(O)c1cc(S(=O)(=O)O)ccc1O [Meclocycline Sulfosalicylate]	0%	Q4	1%								LPS % inhibition ([2]; primary microglia HTS, LPS stimulation, increased cell size (>800 μm^2) as marker of activation): 18%; Fibrin % inhibition [5, 9]: 20%
CCCCOc1cc(C(=O)OCCN(CC)CC)ccc1N [Oxybuprocaine]	0%	Q4	1%	11%	7%						
O=C(O)c1cc(-c2ccccc2)nc2ccccc12 [Cinchophen]											LPS % cell toxicity ([1]; primary HTS, 10 μM, LPS assay, dead cells size <150 μm2): 0%; inhibition at 10 µM ([2]; primary HTS, 10 μM, LPS-stimulated primary microglia): 36%; Quadrant (FIG. 5b) ([3]; primary HTS, 10 μM): Q4; Fibrin % cell toxicity ([4]; primary HTS, 10 μM, fibrin assay, dead cells size <150 μm2): 1%; inhibition at 10 µM ([5]; primary HTS, 10 μM, fibrin-stimulated primary microglia): -9%
NC(=O)NS(=O)(=O)c1ccc(N)cc1 [Sulfacarbamide]						0%	46%	Q4	1%	45%	
Cc1cccc(Nc2ccncc2S(=O)(=O)NC(=O)NC(C)C)c1 [Torasemide]						0%	7%	Q4	1%	-29%	
NC[C@H]1O[C@H](O[C@H]2[C@H](O)[C@@H](O[C@H]3O[C@H](CO)[C@@H](O)[C@H](N)[C@H]3O)[C@H](N)C[C@@H]2N)[C@H](N)C[C@@H]1O [Tobramycin]						0%	24%	Q4	1%	1%	
COc1ccc(C(=O)NCc2ccc(OCCN(C)C)cc2)cc1OC [Itopride, Itopride Hydrochloride]		Q4									LPS % cell toxicity [1, 16]: 0%; LPS % inhibition ([2]; primary microglia HTS, LPS stimulation, activation = cell size >800 μm2): 25%; Fibrin % cell toxicity [4, 17]: 0%; Fibrin % inhibition [5, 18]: −49%
COC(=O)C1=C(C)NC(C)=C(C(=O)OCCN2CCN(C(c3ccccc3)c3ccccc3)CC2)C1c1cccc([N+](=O)[O-])c1 (stereo not drawn) [Manidipine Hydrochloride]	1%	Q4	1%	12%	-43%						
COc1ccc(Cc2nccc3cc(OC)c(OC)cc23)cc1OC [Papaverine]	0%	Q4	0%	27%	12%						
COc1ccccc1O [Guaiacol]		Q4									LPS % cell toxicity [1, 16]: 0%; inhibition at 10 µM ([2]; 48 h, primary microglia HTS, LPS stimulation, activation = cell size >800 μm2): 11%; Fibrin % cell toxicity [4, 17]: 0%; inhibition at 10 µM [5, 18]: -51%
C[C@]12Cc3c[nH]nc3C[C@@H]1CC[C@@H]1[C@@H]2CC[C@@]2(C)[C@H]1CC[C@]2(C)O [Stanozolol]						1%	33%	Q4	1%	-5%	
Clc1cc(Cl)c(OCC#CI)cc1Cl [Haloprogin]	70%	Q2	42%	106%	78%						
